According to patent US20150307520A1, “NOVEL HETEROARYL AND HETEROCYCLE COMPOUNDS, COMPOSITIONS AND METHODS THEREOF” (HUTCHISON MEDIPHARMA LIMITED, priority 2012, published 2015):
pIC50: −log10 of the molar value.

Assays:
Format in all cases: biochemical
p110γ = p110γ (Homo sapiens, UniProt P48736); assay: Transcreener KINASE Assay, kinase inhibition of p110γ; settings: for PI3Kγ IH % @ 1 uM: 1 uM test compound; for pIC50: read-out: PI3Kγ IC50
Summary of the method: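 Recombinant PI3K isoform complexes were tested in a two-step endpoint ADP-detection assay. Kinase reaction ran 80 min at room temperature, followed by 60 min with ADP detection mix. Far-red competitive fluorescence polarization immunoassay read-out; IC50s fitted from the FP data.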

p110δ/p85α = p110δ/p85α (Homo sapiens, UniProt O00329); assay: Transcreener KINASE Assay, kinase inhibition of p110δ/p85α; settings: for PI3Kδ IH % @ 1 uM: 1 uM test compound; for pIC50: read-out: PI3Kδ IC50
Summary of the method: (§1)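 ADP production was read by fluorescence polarization immunoassay (60 min detection step) after an 80 min room-temperature reaction of p110/p85α enzyme, compound in 2% DMSO, and PIP2/ATP solution (30 uM/10 uM as added) in HEPES buffer with MgCl2 and DTT. IC50s came from inhibition versus the DMSO control.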

p110β/p85α = p110β/p85α (Homo sapiens, UniProt P42338); assay: Transcreener KINASE Assay, kinase inhibition of p110β/p85α; settings: for PI3Kβ IH % @ 1 uM: 1 uM test compound; for pIC50: read-out: PI3Kβ IC50
Summary of the method: as §1

p110γ, sequence (P48736 whole entry, canonical isoform): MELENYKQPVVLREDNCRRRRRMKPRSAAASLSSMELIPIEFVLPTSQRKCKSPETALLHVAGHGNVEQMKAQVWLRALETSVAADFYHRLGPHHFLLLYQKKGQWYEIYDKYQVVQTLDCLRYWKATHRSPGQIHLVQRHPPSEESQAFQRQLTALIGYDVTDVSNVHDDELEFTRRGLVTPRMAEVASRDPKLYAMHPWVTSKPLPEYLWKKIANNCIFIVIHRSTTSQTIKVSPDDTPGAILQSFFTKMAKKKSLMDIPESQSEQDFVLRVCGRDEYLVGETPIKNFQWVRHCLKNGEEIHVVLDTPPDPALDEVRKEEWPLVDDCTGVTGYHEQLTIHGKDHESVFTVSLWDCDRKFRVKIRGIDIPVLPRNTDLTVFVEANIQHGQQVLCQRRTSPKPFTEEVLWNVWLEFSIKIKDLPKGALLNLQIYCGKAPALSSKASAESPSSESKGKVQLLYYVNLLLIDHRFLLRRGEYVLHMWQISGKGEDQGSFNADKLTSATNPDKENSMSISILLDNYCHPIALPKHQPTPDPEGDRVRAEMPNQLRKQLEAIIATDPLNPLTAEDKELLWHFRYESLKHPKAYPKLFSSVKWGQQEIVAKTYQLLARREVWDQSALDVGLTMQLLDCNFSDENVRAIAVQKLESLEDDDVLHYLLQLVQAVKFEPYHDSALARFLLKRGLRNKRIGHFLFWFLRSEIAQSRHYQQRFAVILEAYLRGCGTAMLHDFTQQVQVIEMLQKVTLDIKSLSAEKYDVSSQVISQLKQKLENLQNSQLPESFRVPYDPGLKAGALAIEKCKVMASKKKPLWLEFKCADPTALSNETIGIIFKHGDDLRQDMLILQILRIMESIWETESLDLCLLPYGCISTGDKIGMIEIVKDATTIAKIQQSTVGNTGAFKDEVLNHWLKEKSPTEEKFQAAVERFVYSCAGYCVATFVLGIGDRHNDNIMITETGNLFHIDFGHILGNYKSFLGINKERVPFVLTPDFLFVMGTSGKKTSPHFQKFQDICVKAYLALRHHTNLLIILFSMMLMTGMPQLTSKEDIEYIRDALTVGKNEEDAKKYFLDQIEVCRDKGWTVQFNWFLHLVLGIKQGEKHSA
p110β/p85α, sequence (P42338 whole entry): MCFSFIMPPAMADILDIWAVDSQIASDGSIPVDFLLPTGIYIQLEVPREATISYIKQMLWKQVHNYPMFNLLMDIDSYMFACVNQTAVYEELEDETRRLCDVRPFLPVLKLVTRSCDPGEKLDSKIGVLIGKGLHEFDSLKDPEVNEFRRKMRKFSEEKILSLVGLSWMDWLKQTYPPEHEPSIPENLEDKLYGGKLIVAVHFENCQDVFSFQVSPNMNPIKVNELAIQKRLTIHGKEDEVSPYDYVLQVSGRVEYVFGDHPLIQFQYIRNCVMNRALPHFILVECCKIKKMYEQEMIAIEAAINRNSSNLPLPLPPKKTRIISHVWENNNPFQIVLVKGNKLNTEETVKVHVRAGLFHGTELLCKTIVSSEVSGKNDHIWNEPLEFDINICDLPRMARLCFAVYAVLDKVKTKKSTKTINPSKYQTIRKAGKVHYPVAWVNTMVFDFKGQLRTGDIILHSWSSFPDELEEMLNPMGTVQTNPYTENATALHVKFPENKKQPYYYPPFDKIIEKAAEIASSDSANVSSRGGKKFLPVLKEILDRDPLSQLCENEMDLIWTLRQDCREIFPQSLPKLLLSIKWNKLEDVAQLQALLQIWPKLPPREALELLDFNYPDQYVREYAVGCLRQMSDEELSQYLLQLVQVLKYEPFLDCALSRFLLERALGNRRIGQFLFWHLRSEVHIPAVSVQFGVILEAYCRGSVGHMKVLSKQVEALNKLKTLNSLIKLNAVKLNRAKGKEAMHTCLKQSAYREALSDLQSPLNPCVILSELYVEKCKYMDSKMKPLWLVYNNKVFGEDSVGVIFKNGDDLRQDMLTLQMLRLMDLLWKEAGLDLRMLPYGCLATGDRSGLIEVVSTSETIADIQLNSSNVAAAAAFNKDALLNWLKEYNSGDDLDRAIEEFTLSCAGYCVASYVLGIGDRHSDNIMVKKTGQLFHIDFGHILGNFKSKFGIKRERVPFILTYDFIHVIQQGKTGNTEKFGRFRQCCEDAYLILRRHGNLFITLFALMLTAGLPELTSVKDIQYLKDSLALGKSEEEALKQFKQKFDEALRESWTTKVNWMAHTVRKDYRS
p110β/p85α, sequence (P27986 2-724 partner): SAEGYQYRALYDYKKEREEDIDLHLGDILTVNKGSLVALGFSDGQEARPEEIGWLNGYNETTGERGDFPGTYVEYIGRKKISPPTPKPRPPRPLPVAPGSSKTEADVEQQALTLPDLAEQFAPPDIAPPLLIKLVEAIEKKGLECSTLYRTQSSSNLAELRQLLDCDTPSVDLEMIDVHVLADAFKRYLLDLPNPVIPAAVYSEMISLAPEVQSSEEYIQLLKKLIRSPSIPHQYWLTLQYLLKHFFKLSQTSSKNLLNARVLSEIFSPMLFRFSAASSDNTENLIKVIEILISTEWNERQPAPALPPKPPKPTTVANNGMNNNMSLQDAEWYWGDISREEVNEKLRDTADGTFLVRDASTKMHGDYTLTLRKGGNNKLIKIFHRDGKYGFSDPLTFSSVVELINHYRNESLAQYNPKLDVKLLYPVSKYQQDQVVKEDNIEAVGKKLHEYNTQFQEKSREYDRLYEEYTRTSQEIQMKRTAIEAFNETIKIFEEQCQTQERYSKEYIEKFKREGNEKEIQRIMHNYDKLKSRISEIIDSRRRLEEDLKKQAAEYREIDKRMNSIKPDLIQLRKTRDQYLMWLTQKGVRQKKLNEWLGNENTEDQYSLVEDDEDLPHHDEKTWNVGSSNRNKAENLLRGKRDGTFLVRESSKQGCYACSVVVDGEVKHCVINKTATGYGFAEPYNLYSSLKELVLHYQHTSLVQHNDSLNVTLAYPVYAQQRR
p110δ/p85α, sequence (O00329 whole entry): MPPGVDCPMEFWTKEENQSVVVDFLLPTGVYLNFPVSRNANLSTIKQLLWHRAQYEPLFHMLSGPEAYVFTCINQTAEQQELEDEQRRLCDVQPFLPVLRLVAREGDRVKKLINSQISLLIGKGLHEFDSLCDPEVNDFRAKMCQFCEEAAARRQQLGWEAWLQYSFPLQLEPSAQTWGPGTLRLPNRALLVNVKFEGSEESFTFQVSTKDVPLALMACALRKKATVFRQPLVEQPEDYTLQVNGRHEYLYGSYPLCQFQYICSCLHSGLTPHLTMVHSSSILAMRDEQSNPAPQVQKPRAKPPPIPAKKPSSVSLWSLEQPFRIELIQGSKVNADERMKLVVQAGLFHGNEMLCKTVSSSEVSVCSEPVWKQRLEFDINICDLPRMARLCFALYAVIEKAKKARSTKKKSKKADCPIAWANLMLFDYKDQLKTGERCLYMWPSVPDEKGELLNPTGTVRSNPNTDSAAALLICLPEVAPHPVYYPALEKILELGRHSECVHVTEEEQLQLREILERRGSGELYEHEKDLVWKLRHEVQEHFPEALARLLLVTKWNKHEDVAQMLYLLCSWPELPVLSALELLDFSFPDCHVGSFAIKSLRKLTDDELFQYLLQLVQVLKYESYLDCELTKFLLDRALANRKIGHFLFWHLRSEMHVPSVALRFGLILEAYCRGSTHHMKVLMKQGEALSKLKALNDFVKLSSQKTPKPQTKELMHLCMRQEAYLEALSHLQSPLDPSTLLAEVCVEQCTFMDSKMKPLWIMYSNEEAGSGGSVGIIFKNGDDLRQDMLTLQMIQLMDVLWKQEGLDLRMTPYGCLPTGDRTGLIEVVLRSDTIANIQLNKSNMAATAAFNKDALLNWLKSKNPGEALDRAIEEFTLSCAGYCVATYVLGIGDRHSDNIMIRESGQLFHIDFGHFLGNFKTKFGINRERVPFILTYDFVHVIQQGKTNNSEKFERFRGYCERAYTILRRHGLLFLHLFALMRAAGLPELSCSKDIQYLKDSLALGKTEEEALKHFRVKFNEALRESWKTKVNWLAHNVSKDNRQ
p110δ/p85α, sequence (P27986 whole entry partner): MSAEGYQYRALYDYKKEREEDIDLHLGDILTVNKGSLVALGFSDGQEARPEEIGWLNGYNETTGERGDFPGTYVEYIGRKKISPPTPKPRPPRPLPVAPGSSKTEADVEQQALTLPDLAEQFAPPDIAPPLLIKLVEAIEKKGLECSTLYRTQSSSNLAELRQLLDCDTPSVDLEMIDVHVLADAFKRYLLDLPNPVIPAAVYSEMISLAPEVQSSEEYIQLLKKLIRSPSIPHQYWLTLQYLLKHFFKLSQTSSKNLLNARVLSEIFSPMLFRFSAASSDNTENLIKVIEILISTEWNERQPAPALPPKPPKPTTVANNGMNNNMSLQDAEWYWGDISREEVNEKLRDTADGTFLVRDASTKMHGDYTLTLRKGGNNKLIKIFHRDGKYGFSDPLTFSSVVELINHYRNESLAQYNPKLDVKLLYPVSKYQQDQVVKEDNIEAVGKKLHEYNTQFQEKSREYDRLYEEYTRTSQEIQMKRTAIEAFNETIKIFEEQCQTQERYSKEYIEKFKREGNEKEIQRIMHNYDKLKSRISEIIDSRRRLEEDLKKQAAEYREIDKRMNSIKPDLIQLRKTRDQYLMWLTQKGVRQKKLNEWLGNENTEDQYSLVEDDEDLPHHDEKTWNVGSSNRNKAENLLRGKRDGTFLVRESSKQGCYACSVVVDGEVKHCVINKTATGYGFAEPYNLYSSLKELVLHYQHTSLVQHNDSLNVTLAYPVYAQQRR

Structure (SMILES) | PI3Kγ IH % @ 1 uM (p110γ) [%] | pIC50 (p110γ) | PI3Kδ IH % @ 1 uM (p110δ/p85α) [%] | pIC50 (p110δ/p85α) | PI3Kβ IH % @ 1 uM (p110β/p85α) [%] | pIC50 (p110β/p85α)
CC(C)Cn1c([C@@H]2CCN2c2nc(N)ncc2C#N)nn2ccc(Cl)c2c1=O [Compound 260] | 90.9 | 6.79 | 98.0 | 7.40 | 39.6 | –
N#Cc1c[nH]c2ncnc(N3C[C@@H](O)C[C@H]3c3nn4ccc(Cl)c4c(=O)n3-c3cccc(F)c3)c12 [Compound 261] | >100 | 8.52 | >100 | 9.00 | >100 | 7.51
O=c1c2c(Cl)ccn2nc([C@@H]2C[C@H](O)CN2c2ncnc3[nH]cnc23)n1-c1ccccc1 [Compound 262] | 93.4 | 7.96 | 97.1 | – | 88.8 | 7.74
CO[C@H]1C[C@@H](c2nn3ccc(Cl)c3c(=O)n2-c2ccccc2)N(c2ncnc3[nH]cnc23)C1 [Compound 263] | >100 | 7.77 | >100 | 8.40 | 74.5 | 6.93
COCCO[C@H]1C[C@@H](c2nn3ccc(Cl)c3c(=O)n2-c2ccccc2)N(c2ncnc3[nH]cc(C#N)c23)C1 [Compound 264, 4-((2S,4S)-2-(5-chloro-4-oxo-3-phenyl-3,4-dihydropyrrolo[2,1-f][1,2,4]triazin-2-yl)-4-(2-methoxyethoxyl)pyrrolidin-1-yl)-7H-pyrrolo[2,3-d]pyrimidine-5-carbonitrile] | >100 | 8.52 | >100 | 9.00 | 92.8 | 7.16
O=c1c2c(Cl)ccn2nc([C@@H]2C[C@H](OCCO)CN2c2ncnc3[nH]cnc23)n1-c1ccccc1 [Compound 265] | >100 | 7.96 | >100 | 9.00 | 68.6 | 6.52
COCCO[C@H]1C[C@@H](c2nn3ccc(Cl)c3c(=O)n2-c2ccccc2)N(c2ncnc3[nH]cnc23)C1 [Compound 266] | >100 | 7.68 | >100 | 8.22 | 49.9 | –
C[S+]([O-])c1c[nH]c2ncnc(N3C[C@@H](F)C[C@H]3c3nn4ccc(Cl)c4c(=O)n3-c3ccccc3)c12 (stereo partly shown) [Compound 267] | >100 | 7.89 | 98.9 | 8.52 | 73.2 | 6.69
CC(Nc1ncnc2[nH]cc(S(C)(=O)=O)c12)c1cn2ccc(Cl)c2c(=O)n1-c1ccccc1 (stereo not shown) [Compound 269] | >100 | 7.03 | 94.7 | 6.83 | 38.1 | –
CC(Nc1ncnc2[nH]cc(F)c12)c1cn2ccc(Cl)c2c(=O)n1-c1ccccc1 (stereo not shown) [Compound 270] | 89.7 | 7.66 | >100 | 7.92 | 87.4 | 6.76
CC(Nc1nc(N)ncc1C#N)c1cn2ccc(Cl)c2c(=O)n1-c1ccccc1 (stereo not shown) [Compound 271] | 97.6 | 8.70 | >100 | 9.00 | 94.2 | 7.82
CC(=O)c1c[nH]c2ncnc(NC(C)c3cn4ccc(Cl)c4c(=O)n3-c3ccccc3)c12 (stereo not shown) [Compound 272] | >100 | 7.68 | 98.8 | 8.15 | 76.9 | 6.62
CC(=O)c1cnc(N)nc1NC(C)c1cn2ccc(Cl)c2c(=O)n1-c1ccccc1 (stereo not shown) [Compound 273] | 98.3 | 8.30 | >100 | 8.52 | 98.8 | 7.92
CC(=O)c1c(N)ncnc1NC(C)c1cn2ccc(Cl)c2c(=O)n1-c1ccccc1 (stereo not shown) [Compound 274] | 86.8 | 7.00 | 97.8 | 8.52 | 61.6 | –
CC(Nc1nc(N)nc2c1C(=O)CCN2)c1cn2ccc(Cl)c2c(=O)n1-c1ccccc1 (stereo not shown) [Compound 275] | 97.8 | 9.00 | >100 | 9.40 | 97.5 | 7.92
CC(=O)c1c[nH]c2ncnc(NC(C)c3cn4ccc(Cl)c4c(=O)n3-c3cccc(F)c3)c12 (stereo not shown) [Compound 276] | 95.7 | 8.22 | 99.1 | 9.00 | 52.9 | –
CC(Nc1ncnc2[nH]cc(C#N)c12)c1cn2ccc(Cl)c2c(=O)n1-c1cccc(F)c1 (stereo not shown) [Compound 277] | 97.0 | 7.96 | 99.5 | 9.00 | 81.4 | 6.61
COCC#Cc1c[nH]c2ncnc(N3CC[C@H]3c3nn4ccc(Cl)c4c(=O)n3-c3ccccc3)c12 [Compound 279] | 92.0 | 7.38 | >100 | 8.30 | 43.0 | –
Cn1cc(-c2cnc(N)nc2N2CC[C@H]2c2nn3ccc(Cl)c3c(=O)n2-c2ccccc2)cn1 [Compound 280] | 87.2 | 6.59 | 47.0 | – | −2.0 | –
CN(C)C(=O)c1cnc(N)nc1N1CC[C@H]1c1nn2ccc(Cl)c2c(=O)n1-c1ccccc1 [Compound 281] | 62.2 | – | 15.7 | – | 11.1 | –
Nc1ncc([N+](=O)[O-])c(N2CC[C@H]2c2nn3ccc(Cl)c3c(=O)n2-c2ccccc2)n1 [Compound 282] | 93.5 | – | 94.9 | – | 19.9 | –
Cc1nc(N)nc(N2CC[C@H]2c2nn3ccc(Cl)c3c(=O)n2-c2ccccc2)c1C#N [Compound 283] | >100 | 9.00 | >100 | 8.70 | 78.0 | 6.86
COc1cnc(N)nc1N1CC[C@H]1c1nn2ccc(Cl)c2c(=O)n1-c1ccccc1 [Compound 284] | 51.2 | – | 51.2 | – | 9.7 | –
CC(Nc1ncnc2[nH]cc(F)c12)c1cc2ncc(Cl)n2c(=O)n1-c1ccccc1 (stereo not shown) [Compound 285] | >100 | 7.43 | >100 | 8.40 | 79.0 | 6.59
CC(Nc1ncnc2[nH]cc(S(C)(=O)=O)c12)c1cc2ncc(Cl)n2c(=O)n1-c1ccccc1 (stereo not shown) [Compound 286] | 56.2 | – | 88.8 | 7.54 | 25.2 | –
CC(=O)c1c[nH]c2ncnc(NC(C)c3cc4ncc(Cl)n4c(=O)n3-c3ccccc3)c12 (stereo not shown) [Compound 287] | 96.9 | 7.17 | >100 | 8.30 | 73.9 | 6.33
CC(=O)c1cnc(N)nc1NC(C)c1cc2ncc(Cl)n2c(=O)n1-c1ccccc1 (stereo not shown) [Compound 288] | 95.8 | 7.68 | 99.7 | 8.40 | 94.5 | 7.03
